Usually IC50 stands for the concentration that inhibits the measured activity by half.

One assay has as its system HCT-116. In words: Antiproliferative activity against human HCT-116 cells assessed as reduction in cell viability after 24 hrs by CCK-8 assay. The format is functional, cell-based. Conditions: HCT-116, 24 h. In general terms: Tetrazolium assays rely on reduction of a dye to a coloured formazan, in cell work by metabolically active cells.
The next assay deals with HeLa. In words: Antiproliferative activity against human HeLa cells assessed as reduction in cell viability after 24 hrs by CCK-8 assay. The assay is classed as functional, cell-based.
In a further assay the test system is HepG2. In words: Antiproliferative activity against human HepG2 cells assessed as reduction in cell viability after 24 hrs by CCK-8 assay. The assay is classed as functional, cell-based. Conditions: HepG2, 24 h.
The subject of the next assay is MGC-803. In words: Antiproliferative activity against human MGC-803 cells assessed as reduction in cell viability after 24 hrs by CCK-8 assay. The format is functional, cell-based. As to conditions: MGC-803, 24 h.
In another assay the test system is MKN-45. Nature of the assay: Antiproliferative activity against human MKN-45 cells assessed as reduction in cell viability after 24 hrs by CCK-8 assay. As to conditions: MKN-45, 24 h. The assay is classed as functional, cell-based.
A further assay relates to MCF7. In words: Antiproliferative activity against human MCF7 cells assessed as reduction in cell viability after 24 hrs by CCK-8 assay. The format is functional, cell-based. As to conditions: MCF7, 24 h.
A short description of assay [1]: Inhibition of Arylsulfatase (unknown origin) using potassium p-nitrophenyl sulfate as substrate incubated for 5 mins. More on the design: species or system Homo sapiens.
The target in the next assay is Tubulin (Sus scrofa, UniProt P02554+P02550). Nature of the assay: Inhibition of pig brain tubulin polymerization by spectrophotometric method. The assay is classed as tissue-based.
A short description of assay [2]: Inhibition of bovine brain tubulin polymerization by spectrophotometric method. The format is tissue-based, Bos taurus.

Turning to `COc1ccc(/C=C/c2cc(OC)c(OC)c(OC)c2)cc1OS(N)(=O)=O`, the IC50 in the assay on HCT-116 was found to be 1.57 µM; with HeLa, 4.5 µM; with HepG2, 0.87 µM; with MGC-803 it was 2.98 µM; in the assay on MKN-45 it was 10.5 µM; in the assay with MCF7, 5.44 µM. In addition, the values for the IC50 (in [1]; against Tubulin) were 12.9 µM and 55.7 µM, respectively.
`COc1ccc(CCc2cc(OC)c(OC)c(OC)c2)cc1OS(N)(=O)=O`: the IC50 came out at 2.63 µM with HCT-116; 9.04 µM with HeLa; 1.06 µM in the assay with HepG2; 3.61 µM in the assay with MGC-803; 11.9 µM in the assay on MKN-45; 5.91 µM in the assay on MCF7. The IC50 (in assay [1]; on Tubulin) was greater than 100 µM each time.
As for `COc1cc(/C=C/c2ccc(OC(F)F)c(OS(N)(=O)=O)c2)cc(OC)c1OC`, the IC50 came out at 12.8 µM in the assay on HCT-116; 8.42 µM with HeLa; 5.54 µM with HepG2; 9.24 µM with MGC-803; 13.8 µM with MKN-45; 13.8 µM in the assay with MCF7.
In the case of `COc1cc(/C=C\c2cccc(OS(N)(=O)=O)c2)cc(OC)c1OC`, the 50% inhibitory concentration (IC50) in the assay on HCT-116 was determined as 9.5 µM; with HeLa, 16.3 µM; in the assay on HepG2, 9.36 µM; in the assay with MGC-803 it was 8.53 µM; in the assay on MKN-45, 15.3 µM; in the assay with MCF7, 11.1 µM. Also, the figures for the half-maximal inhibitory concentration (IC50) (in assay [1]; against Tubulin) were 0.47 µM and greater than 100 µM, respectively.
As for `COc1cc(/C=C\c2ccc(OC(F)F)c(OS(N)(=O)=O)c2)cc(OC)c1OC`, the IC50 with HCT-116 is 9.11 µM; with HeLa, 7.82 µM; in the assay with HepG2, 4.81 µM; with MGC-803 it was 9 µM; in the assay on MKN-45, 12.5 µM; in the assay with MCF7 it was 0.29 µM. The concentration for half-maximal inhibition (IC50) stood at 4.64 µM in assay [1] and 72.6 µM against Tubulin.
As for `COc1cc(/C=C/c2cccc(OS(N)(=O)=O)c2)cc(OC)c1OC`, the IC50 in the assay on HCT-116 worked out at 40.3 µM; with HeLa, 19 µM; in the assay with HepG2, 11.8 µM; in the assay on MGC-803, 27 µM; with MKN-45, 25 µM; in the assay on MCF7 it was 27.4 µM.
Turning to `COc1cc(CCc2cccc(OS(N)(=O)=O)c2)cc(OC)c1OC`, the IC50 in the assay on HCT-116 is 52.5 µM; with HeLa it was 27.1 µM; with HepG2, 12 µM; with MGC-803, 17.6 µM; in the assay with MKN-45 it was 25.7 µM; with MCF7, greater than 100 µM.
For the molecule `COc1ccc(/C=C\c2cc(OC)c(OC)c(OC)c2)cc1NS(N)(=O)=O`, the half-maximal inhibitory concentration (IC50) was determined as 3.29 µM in the assay with HCT-116; 0.27 µM in the assay on HeLa; 0.75 µM with HepG2; 0.5 µM in the assay on MGC-803; 9.56 µM with MKN-45; 11.2 µM in the assay with MCF7. Besides, the IC50 was greater than 100 µM in assay [1] and 86.2 µM against Tubulin.
Turning to `CNS(=O)(=O)Oc1cc(/C=C\c2cc(OC)c(OC)c(OC)c2)ccc1OC`, the IC50 in the assay on HCT-116 amounted to 0.0113 µM; in the assay on HeLa it was 0.0034 µM; in the assay with HepG2, 0.0039 µM; in the assay with MGC-803, 0.0037 µM; with MKN-45, 0.0073 µM; in the assay with MCF7 it was 0.53 µM. The IC50 is greater than 100 µM in [1] and 1.8 µM against Tubulin.
Regarding `CCOc1ccc(/C=C\c2cc(OC)c(OC)c(OC)c2)cc1OS(N)(=O)=O`, the half-inhibitory concentration (IC50) is 0.55 µM in the assay on HCT-116; 0.48 µM in the assay with HeLa; 0.41 µM in the assay with HepG2; 0.27 µM in the assay on MGC-803; 0.32 µM in the assay on MKN-45; 0.3 µM in the assay with MCF7. Moreover, the 50% inhibitory concentration (IC50) in assay [1] amounted to 90.2 µM; against Tubulin, 3.1 µM.
On to `CCOc1ccc(CCc2cc(OC)c(OC)c(OC)c2)cc1OS(N)(=O)=O`, for which the IC50 with HCT-116 is 10.2 µM; in the assay with HeLa, 2.93 µM; with HepG2, 3.65 µM; in the assay on MGC-803, 3.59 µM; in the assay on MKN-45, 7.67 µM; with MCF7 it was 14.8 µM.
As to `COc1ccc(/C=C\c2cc(OC)c(OC)c(OC)c2)cc1OS(=O)(=O)N(C)C`, the IC50 in the assay with HCT-116 was 0.37 µM; in the assay on HeLa it was 14.3 µM; in the assay on HepG2, 9.96 µM; with MGC-803 it was 7.14 µM; with MKN-45, 8.95 µM; with MCF7 it was 11.1 µM. For the same molecule, the IC50 is greater than 100 µM in assay [1] and 12.5 µM against Tubulin.
In the case of `COc1ccc(/C=C/c2cc(OC)c(OC)c(OC)c2)cc1NS(N)(=O)=O`, the IC50 was 8.65 µM in the assay on HCT-116; 0.38 µM with HeLa; 7.53 µM in the assay with HepG2; 6.19 µM with MGC-803; 18.9 µM with MKN-45; 17.1 µM in the assay on MCF7.
Regarding `COc1ccc(/C=C\c2cc(OC)c(OC)c(OC)c2)cc1OS(N)(=O)=O`, the half-inhibitory concentration (IC50) in the assay with HCT-116 was 0.005 µM; in the assay on HeLa, 0.0061 µM; with HepG2, 0.0036 µM; in the assay on MGC-803, 0.0047 µM; with MKN-45, 0.0095 µM; in the assay on MCF7, 0.11 µM. The IC50 stood at 6.16 µM in [1] and 6.6 µM on Tubulin.
Take `COc1ccc(CCc2cc(OC)c(OC)c(OC)c2)cc1NS(N)(=O)=O`: the IC50 was 30.6 µM in the assay with HCT-116; 2.93 µM in the assay with HeLa; 8.1 µM with HepG2; 8.21 µM in the assay on MGC-803; 73.9 µM in the assay with MKN-45; 20.1 µM with MCF7.
As to `CCOc1ccc(/C=C/c2cc(OC)c(OC)c(OC)c2)cc1OS(N)(=O)=O`, the IC50 is 9.12 µM with HCT-116; 5.64 µM in the assay with HeLa; 2.63 µM in the assay on HepG2; 7.63 µM in the assay on MGC-803; 8.05 µM in the assay with MKN-45; 13.7 µM in the assay with MCF7.
Consider `COc1cc(CCc2ccc(OC(F)F)c(OS(N)(=O)=O)c2)cc(OC)c1OC`, for which the IC50 with HCT-116 is 26.5 µM; in the assay on HeLa it was 35.6 µM; in the assay with HepG2 it was 15.9 µM; in the assay with MGC-803 it was 23.3 µM; in the assay on MKN-45, 71.4 µM; with MCF7 it was 52.7 µM.
The molecule `COc1cc2c(cc1O)CC[C@@H]1[C@@H]2CC[C@]2(C)[C@@H](O)CC[C@@H]12` [2-METHOXYESTRADIOL] came in with a half-maximal inhibitory concentration (IC50) in [2] of 40 µM.
On to `COc1ccc(/C=C\c2cc(OC)c(OC)c(OC)c2)cc1O` [COMBRETASTATIN A4], for which the concentration for half-maximal inhibition (IC50) with HCT-116 is 0.0047 µM; with HepG2, 0.0029 µM; in the assay with MGC-803 it was 0.006 µM; in the assay with MKN-45 it was 0.0081 µM; in the assay on MCF7 it was 0.14 µM; in assay [1], greater than 100 µM.
For `C[C@]12CC[C@@H]3c4ccc(OS(N)(=O)=O)cc4CC[C@H]3[C@@H]1CCC2=O` [EMATE], the IC50 in the assay with HCT-116 was 0.9 µM; in the assay on HeLa, 0.63 µM; with HepG2, 0.85 µM; in the assay on MGC-803 it was 0.48 µM; with MKN-45, 0.54 µM; with MCF7 it was 0.07 µM. Moreover, the IC50 is 5.01 µM in assay [1] and 25.9 µM on Tubulin.
